According to US20140357655A1, “SPIROINDOLINE DERIVATIVES AS GONADOTROPIN- RELEASING HORMONE RECEPTOR ANTAGONISTS” (Bayer Intellectual Property GmbH, priority 2012, published 2014):
Read-outs that look alike come from different tables or passages of the source. Square brackets hold non-standard residues; d marks the D form. Peptide text beside a SMILES is read from it. dPhe(4-Cl) = N[C@H](Cc1ccc(Cl)cc1)C(=O)O; d2Nal = N[C@H](Cc1ccc2ccccc2c1)C(=O)O; dCit = NC(=O)NCCC[C@@H](N)C(=O)O; d3Pal = N[C@H](Cc1cccnc1)C(=O)O

Assays:
[1] = Serum compound levels in ovariectomized rats; format: in vivo; conditions: female, rat, read-out: serum compound level
Protocol: (§1) Female adult rats were ovariectomized surgically and they were allowed to recover for at least one week. The animals received 1 mg/kg, 10 mg/kg or 30 mg/kg of Example 14.1 by single per oral administration. For comparison reasons a vehicle control and a positive control, 0.1 mg/kg cetrorelix i.p., were given once. At 0 min, 15 min, 30 min, 1 hour, 2 hours, 6 hours and 24 hours after compound administration blood was taken from the retro orbital plexus (n=6 per blood withdrawal) for the measurement of serum LH and serum compound levels.

[2] = biological target: T1, human GnRH receptor (Homo sapiens, UniProt P30968); assay: IP-One HTRF assay with buserelin (at EC80) stimulation; format: cell-based; conditions: CHO cells stably expressing human GnRH receptor, read-out: Potency in IP-One HTRF assay, given as IC50
T1 sequence (P30968 1-328): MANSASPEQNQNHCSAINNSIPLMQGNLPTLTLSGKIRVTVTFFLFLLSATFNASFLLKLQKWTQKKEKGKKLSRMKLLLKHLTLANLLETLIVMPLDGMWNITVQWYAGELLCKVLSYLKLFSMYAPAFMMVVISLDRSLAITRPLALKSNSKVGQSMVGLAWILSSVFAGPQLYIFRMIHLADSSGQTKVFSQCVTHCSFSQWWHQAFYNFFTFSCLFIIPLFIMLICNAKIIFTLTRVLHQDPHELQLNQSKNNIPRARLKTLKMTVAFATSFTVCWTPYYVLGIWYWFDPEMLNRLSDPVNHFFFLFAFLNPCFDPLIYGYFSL
In short: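 Ten-point duplicate titrations (20 μM to 1 nM) were fitted by 4-parameter model to normalized 665/620 nm HTRF ratios, 0% = no compound, 100% = no agonist. Assay measured IP1 accumulation in human GnRH-R CHO cells stimulated 1 h at 37° C with EC80 buserelin, then lysed 1 h at 22° C.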

[3] = biological target: T2, human GnRHR (Homo sapiens, UniProt P30968); assay: Tag-Lite receptor binding assay; conditions: Hek293 cells transiently transfected with human GnRHR; green-labelled GnRHR binding peptide; read-out: Potency in receptor binding assay using TAG-LITE technology, given as IC50
T2 construct: host or cells: HEK293 (transient transfection), purchased as frozen labelled cells
T2 sequence (P30968 1-328): T1 sequence (P30968 1-328)
Text: This binding assay is based on the fluorescence resonance energy transfer between fluorescence donor labelled human GnRHR and a green-labelled GnRHR binding peptide. Compounds interfering with the ligand binding side of the human GnRHR will replace the labelled peptide resulting in a signal decrease. The assay principle was established by Cisbio Bioassays (Bagnols-sur-Cèze Cedex, France) and further details are available on their homepage.
The assay procedure was further optimized for use in-house with reduced assay volumes. Frozen Hek293 cells, transiently transfected with human GnRHR and Terbium-labelling of the receptor, were supplied by Cisbio Bioassays as well as Tag-Lite buffer and green-labelled GnRHR binding peptide. Cells were thawed and transferred to cold Tag-Lite buffer. A volume of 8 μl of this cell suspension were added to 100 nl of a 160-fold concentrated solution of the test compound in DMSO pre-dispensed in a well of a white low-volume 384-well microtiter plate (Greiner Bio-One, Frickenhausen, Germany). The mixture was incubated for 5 min at room temperature. In the next step either 4 μl Tag-Lite buffer or as control 4 μl of an exceeding amount unlabelled binding peptide in Tag-Lite buffer were transferred to the mixture. The green-labelled GnRHR binding peptide was added in a final step at EC50 in a volume of 4 μl Tag-Lite buffer. After an incubation of 1 h at room temperature plates were measured in a microplate reader, e.g. a PHERAstar (BMG Labtechnologies, Offenburg, Germany) by using a specific optic module.
A ratio from the fluorescence emissions at 520 nm (green fluorescence) and at 490 nm (background signal of Terbium-labelled GnRHR) was calculated and the data were normalized (reaction without test compound=0% inhibition of binding of green-labelled peptide; reaction without test compound with exceeding amount unlabelled binding peptide=100% inhibition of binding of green-labelled peptide). On the same microtiter plate, compounds were tested at 10 different concentrations in the range of 12.5 μM to 0.64 nM (12.5 μM, 4.2 μM, 1.4 μM, 0.46 μM, 0.15 μM, 51 nM, 17 nM, 5.7 nM, 1.9 nM and 0.64 nM; dilution series prepared before the assay at the level of the 160-fold conc. stock solutions by serial 1:3 dilutions in 100% DMSO) in duplicate values for each concentration. By using an in-house software, the IC50 values were calculated by a 4 parameter fit.

[4] = system: serum LH; assay: LH suppression in the ovariectomized rat; format: in vivo; conditions: ovariectomized rats; for LH suppression: at 6 hours
Text: The in vivo potency of GnRH antagonists can be quantified by a LH suppression test in ovariectomized rats. GnRH triggers the LH release from the pituitary mediated by GnRH receptors. Ovarectomy of adult female rats results in elevated levels of circulating LH due to a lack of negative feedback by gonadal steroids. GnRH antagonists suppress the release of LH and accordingly suppression of LH levels can be used to quantify the in vivo potency of GnRH antagonists.
as §1

SMILES | concentration at 6 h ([1]; 1 mg/kg per oral) [nM] | concentration at 6 h ([1]; 10 mg/kg per oral) [nM] | concentration at 6 h ([1]; 30 mg/kg per oral) [nM] | IC50 [2] [nM] | IC50 [3] [nM] | LH suppression ([4]; 1 mg/kg single per oral) [%] | LH suppression ([4]; 10 mg/kg single per oral) [%] | LH suppression ([4]; 30 mg/kg single per oral) [%] | in vivo activity (conclusion in words) ([4]; per oral) | LH suppression ([4]; 0.1 mg/kg i.p.) [%]
O=C(NCc1ncccc1Cl)c1ccc2c(c1)C1(CCS(=O)(=O)CC1)C(C1CC1)N2S(=O)(=O)c1ccc(F)cc1 (single isomer, unassigned) [Example 14.1, N-[(3-Chloropyridin-2-yl)methyl]-2-cyclopropyl-1-[(4-fluorophenyl)sulfonyl]-1,2,2′,3′,5′,6′-hexahydrospiro[indole-3,4′-thiopyran]-5-carboxamide 1′,1′-dioxide] | 40 | 770 ± 200 | 1840 ± 530 | 104 | 20 | 11 | 89 | 88 | orally active GnRH antagonist in vivo | –
CC(=O)N[C@H](Cc1ccc2ccccc2c1)C(=O)N[C@H](Cc1ccc(Cl)cc1)C(=O)N[C@H](Cc1cccnc1)C(=O)N[C@@H](CO)C(=O)N[C@@H](Cc1ccc(O)cc1)C(=O)N[C@H](CCCNC(N)=O)C(=O)N[C@@H](CC(C)C)C(=O)N[C@@H](CCCNC(=N)N)C(=O)N1CCC[C@H]1C(=O)N[C@H](C)C(N)=O [cetrorelix, reference compound] (Ac-[d2Nal][dPhe(4-Cl)][d3Pal]SY[dCit]LRP[dA]-NH2) | – | – | – | – | – | – | – | – | – | 91
